From ChEMBL document CHEMBL1121638, “Synthesis and preliminary pharmacological evaluation of asymmetric chloroquine analogues” (1981)
“And” between values parts separate entries of the source, which are not always exact repeats. Identical values can stand only once. The source made the active and inactive calls. No cut-off for these calls is given here.

What was measured:
Assay type in all cases: functional
Mus musculus [1] = organism: Mus musculus; experiment: Antispasmodic activity evaluated as percentage reduction in the contractile response of the estrous uterus in mouse
Mus musculus [2] = organism: Mus musculus; experiment: Compound was evaluated for the percentage inhibition of the control PGF2-alpha response at a concentration of 3 x 10 e-4 M in isolated mouse ileum
Mus musculus [3] = organism: Mus musculus; experiment: Compound was evaluated for the percentage inhibition of PGF2-alpha-induced contractions at a concentration of 10 e-5 M in isolated mouse ileum; NI=No inhibition
Mus musculus [4] = organism: Mus musculus; experiment: Compound was evaluated for the percentage inhibition of PGF2-alpha-induced contractions at a concentration of 10 e-5 M in isolated mouse ileum

## CCN(CC)CCC[C@H](C)Nc1ccnc2cc(Cl)ccc12
Mus musculus [1]
  Reduction: 50%

## CCN(CC)CCC[C@H](CCl)Nc1ccnc2cc(Cl)ccc12
Mus musculus [2]; Mus musculus, Ileum
  inhibition at 300 µM: 17%
Mus musculus [3]
  inhibition: inactive

## CCN(CC)CCC[C@@H](CCl)Nc1ccnc2cc(Cl)ccc12.Cl
Mus musculus [2]
  Inhibition: 55% and 32%
Mus musculus [4]
  inhibition at 10 µM: 28%
